Experimental data published in patent publication US10899764B2, “Imidazo isoindole derivative, preparation method therefor and medical use thereof” (Jiangsu Hengrui Medicine Co., Ltd., priority 2015, dated 2021).
Structures can show the parent of a compound that is named as a salt. Where two headings read alike, the source gives them in different places.

Assays:
[1] = molecular target: human TDO (Homo sapiens (Human), UniProt P48775); assay: Inhibition activity on human TDO (tryptophan 2,3-dioxygenase) (enzyme assay, absorbance at 480 nm); assay type: biochemical; conditions: read-out: IC50 for inhibiting the activity of human TDO
Sequence of human TDO (P48775 whole entry): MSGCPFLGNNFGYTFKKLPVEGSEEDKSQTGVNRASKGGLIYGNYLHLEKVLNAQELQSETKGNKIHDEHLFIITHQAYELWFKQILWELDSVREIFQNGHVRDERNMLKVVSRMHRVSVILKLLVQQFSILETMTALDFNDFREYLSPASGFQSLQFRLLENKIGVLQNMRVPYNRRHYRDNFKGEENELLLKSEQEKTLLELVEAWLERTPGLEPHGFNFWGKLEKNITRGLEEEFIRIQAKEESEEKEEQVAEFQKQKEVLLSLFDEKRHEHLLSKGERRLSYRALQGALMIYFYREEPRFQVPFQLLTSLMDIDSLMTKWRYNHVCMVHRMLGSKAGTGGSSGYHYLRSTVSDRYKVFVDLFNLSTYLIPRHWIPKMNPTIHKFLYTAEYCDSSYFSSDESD
Description: Assay for Determining the Inhibition activity of the Compounds of the Present Invention on Human TDO (tryptophan 2,3-dioxygenase)
Human TDO activity was tested in vitro by the following method.
This method is used to determine the inhibition effect of the compounds of the present invention on the activity of human TDO.
Plasmids constructed with the human TDO gene were transferred to competent Escherichia coli Rosseta. The TDO gene was scaled-up by culturing in liquid LB (Luria-Bertani) medium [which was prepared per liter according to “Molecular Cloning A Laboratory Manual” (J. Sambrook, D. W. Russell)]). The bacteria were collected and lysed by ultrasonic waves. The purified TDO was obtained by eluting from a column.
For testing, 24 μL of enzyme (TDO) was diluted 100 times with 50 mM KPB to 2400 μL. The concentration of the enzyme solution was 2.6 ng/μL. A 96 well reaction plate (AXYGEN, PCR-96-FLT-C) (hereinafter referred to as the “reaction plate”) was added with the enzyme solution at 24 μL/well. The blank well was added with 24 μL of KPB [Preparation of KPB buffer (50 mM): 6.805 g of KH2PO4 was weighed using an analytical balance, and placed into a 1000 mL beaker, deionized water was added with a measuring cylinder to 900 mL, the pH was adjusted to 6.5 by 1M KOH, then the mixture was introduced into a 1 L measuring cylinder, and water was added to 1 L. It was stored at 4° C.]. Then, 1 μL of a compound or DMSO was added into the corresponding wells in the reaction plate. Preparation of solution A: 200 μL of 500 mM L-sodium ascorbate was added with 1050 μL of KPB, then the mixture was mixed uniformly for 3 seconds at the maximum speed in a turbine mixer. Solution B: 100 μL of 10 mM tryptophan was added with 100 μL of 100,000 unit/ml catalase, 5 μL of 10 mM methylene blue, and 1050 μL of KPB successively, then the mixture was mixed uniformly for 3 seconds at the maximum speed in a turbine mixer. Then, 1200 μL of solution A and 1200 μL of solution B were taken and mixed uniformly for 3 seconds at the maximum speed in a turbine mixer. The mixture was added to the reaction plate at 24 μL/well. The reaction plate was placed in a plate centrifuge and centrifuged for 15 seconds at the maximum speed, so that the reaction liquids converged to the bottom. The reaction mixture was mixed uniformly for 30 seconds on a shaker, and incubated for 1 hour at 37° C. in a constant temperature incubator. In the reaction plate, 30% (W/V) trichloroacetic acid was added at 10 μL/well, then the mixture was incubated for 15 minutes at 65° C. in a incubator. The reaction plate was centrifuged in a centrifuge for 5 minutes at 4700 RPM at room temperature. […] Then, 2% (W/V) 4-(dimethylamino)benzaldehyde/glacial acetic acid solution was added at 40 μL/well, then the mixture was mixed uniformly for 1 minute on a shaker at the maximum speed. After incubation for 2 minutes at room temperature, the absorbance at 480 nm was read on a Synergy HT Reader.
The inhibition activity of the compounds of the present invention on human TDO was tested by the assay described above.

[2] = molecular target: human IDO1 (Homo sapiens (Human), UniProt P14902); assay: Inhibition activity on human IDO1 (enzyme assay, absorbance at 480 nm); assay type: biochemical; conditions: read-out: IC50 for inhibiting the activity of human IDO1
Sequence of human IDO1 (P14902 whole entry): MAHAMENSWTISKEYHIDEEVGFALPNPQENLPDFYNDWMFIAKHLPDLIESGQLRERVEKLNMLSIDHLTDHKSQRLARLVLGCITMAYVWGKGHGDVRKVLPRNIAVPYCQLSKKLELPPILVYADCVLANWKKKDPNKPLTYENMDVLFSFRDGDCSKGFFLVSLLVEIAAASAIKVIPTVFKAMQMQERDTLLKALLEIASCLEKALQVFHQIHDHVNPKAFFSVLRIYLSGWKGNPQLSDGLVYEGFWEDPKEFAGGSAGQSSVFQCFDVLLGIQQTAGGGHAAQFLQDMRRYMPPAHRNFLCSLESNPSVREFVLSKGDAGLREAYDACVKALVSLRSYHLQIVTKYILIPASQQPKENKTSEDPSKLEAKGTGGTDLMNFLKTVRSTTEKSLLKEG
Description: Assay for Determining the Inhibition Activity of the Present Compounds on Human IDO1
Human IDO1 activity was tested in vitro by the following method.
This method is used to determine the inhibition effect of the compounds of the present invention on the activity of human IDO1.
The human IDO1 gene was transferred to Pet30a plasmid by gene cloning, and then transferred to competent Escherichia coli Rosseta. The IDO1 gene was scaled-up by culturing in liquid LB (Luria-Bertani) medium [which was prepared per liter according to “Molecular Cloning A Laboratory Manual” (J. Sambrook, D. W. Russell)]). The bacteria were collected and lysed by ultrasonic waves. The purified IDO1 was obtained by eluting from a column.
For testing, 24 μL of enzyme (IDO1) was diluted 100 times with 50 mM KPB to 2400 μL. The concentration of the enzyme solution was 2.6 ng/μL. A 96 well reaction plate (AXYGEN, PCR-96-FLT-C) (hereinafter referred to as the “reaction plate”) was added with the enzyme solution at 24 μL/well. The blank well was added with 24 μL of KPB [Preparation of KPB buffer (50 mM): 6.805 g of KH2PO4 was weighed using an analytical balance, and placed into a 1000 mL beaker, deionized water was added with a measuring cylinder to 900 ml, the pH was adjusted to 6.5 by 1M KOH, then the mixture was introduced into a 1 L measuring cylinder, and water was added to 1 L. It was stored at 4° C.]. Then, 1 μL of a compound or DMSO was added into the corresponding wells in the reaction plate. Preparation of solution A: 200 μL of 500 mM L-sodium ascorbate were added with 1050 μL of KPB, then the mixture was mixed uniformly for 3 seconds at the maximum speed in a turbine mixer. Solution B: 100 μL of 10 mM tryptophan were added with 100 μL of 100,000 unit/mL catalase, 5 μL of 10 mM methylene blue, and 1050 μL of KPB successively, then the mixture was mixed uniformly for 3 seconds at the maximum speed in a turbine mixer. Then, 1200 μL of solution A and 1200 μL of solution B were taken and mixed uniformly for 3 seconds at the maximum speed in a turbine mixer. The mixture was added to the reaction plate at 24 μL/well. The reaction plate was placed in a plate centrifuge and centrifuged for 15 seconds at the maximum speed, so that the reaction liquids converged to the bottom. The reaction mixture was mixed uniformly for 30 seconds on a shaker, and incubated for 1 hour at 37° C. in a constant temperature incubator. In the reaction plate, 30% (W/V) trichloroacetic acid was added at 10 μL/well, then the mixture was incubated for 15 minutes at 65° C. in an incubator. The reaction plate was centrifuged in a centrifuge for 5 minutes at 4700 RPM at room temperature. […] Then, 2% (W/V) 4-(dimethylamino)benzaldehyde/glacial acetic acid solution was added at 40 μL/well, and the mixture was mixed uniformly for 1 minute on a shaker at the maximum speed. After incubation for 2 minutes at room temperature, the absorbance at 480 nm was read on a Synergy HT (BIOTEK) reader.
The inhibition activity of the compounds of the present invention on human IDO1 was tested by the assay described above.

[3] = molecular target: IDO in HeLa cells (Homo sapiens (Human), UniProt P14902); assay: Inhibition activity on IDO in HeLa cells (INF-γ induced); assay type: cell-based; conditions: read-out: IC50 for inhibiting the activity of IDO in HeLa cells
Sequence of IDO in HeLa cells (P14902 whole entry): as above
Description: Assay for Determining the Inhibition Activity of the Present Compounds on IDO in HeLa Cells
IDO activity in HeLa cells was tested in vitro by the following method.
This method is used to determine the inhibition effect of the compounds of the present invention on the activity of IDO in HeLa cells. (Note: indoleamine 2,3-dioxygenase (IDO) is expressed in the HeLa cell line and induced by interferon gamma (INF-γ)).
The supernatant was removed, serum-free DMEM high glucose medium was added at 90 μL/well, then the compounds contained in the culture medium with INF-γ and tryptophan were added at 10 μL/well (the final concentrations: 10000, 1000, 100, 10, 1, 0.1 nM). […] Then, 80 μL of the supernate was transferred from the 96-well cell culture plate to a 96 well round-bottomed plate, then 30% (W/V) trichloroacetic acid was added at 16 μL/well, then the mixture was incubated for 25 minutes at 65° C. in an incubator. The reaction plate was centrifuged in a centrifuge for 5 minutes at 4700 RPM. Then, 50 μL of the supernatant was transferred from the reaction plate to a 96-well flat-bottomed transparent plate by a multi-channel pipette. Then, 2% (W/V) 4-(dimethylamino)benzaldehyde/glacial acetic acid solution was added at 50 μL/well, then the mixture was mixed uniformly for 1 minute on a shaker. After incubation for 2 minutes at room temperature, the absorbance at 480 nm was read on a Synergy HT Reader.
The inhibition activity of the compounds of the present invention on IDO in HeLa cells was tested by the assay described above.

[4] = purified recombinant human IDO1, 1 hour at 37° C.
[5] = purified recombinant human TDO, 1 hour at 37° C.
[6] = HeLa cells, INF-γ and tryptophan, 48 hours

Question: With `NC(=O)c1ccc(N2CCC(C3c4c(F)cccc4-c4cncn43)CC2)cc1` (centres unmarked) [Example 6, 4-(4-(6-fluoro-5H-imidazo[5,1-a]isoindol-5-yl)piperidin-1-yl)benzamide trifluoroacetate] as the compound, how does the IC50 [1] read?
Answer: Its IC50 is 394 nM.

Question: For `Nc1cc(-c2nnc(N3CCC(C4c5c(F)cccc5-c5cncn54)CC3)s2)ccn1` (centres unmarked) [Example 36, 4-(5-(4-(6-fluoro-5H-imidazo[5,1-a]isoindol-5-yl)piperidin-1-yl)-1,3,4-thiadiazol-2-yl)pyridin-2-amine trifluoroacetate], which IC50 [2, 4] is on record?
Answer: The IC50 was 10.6 nM.

Question: And the IC50 [1, 5]?
Answer: The IC50 was 104 nM.

Question: And the IC50 [3, 6]?
Answer: Its IC50 is 27.8 nM.

Question: With `CS(=O)(=O)N1CCC(Oc2ccc(N3CCC(C4c5c(F)cccc5-c5cncn54)CC3)cc2)CC1` (centres unmarked) [Example 39, 6-fluoro-5-(1-(4-((1-(methylsulfonyl)piperidin-4-yl)oxy)phenyl)piperidin-4-yl)-5H-imidazo[5,1-a]isoindole] as the compound, how does the IC50 [2, 4] read?
Answer: The IC50 was 15.5 nM.

Question: And the IC50 [1, 5]?
Answer: The IC50 was 243 nM.

Question: What about the IC50 [3, 6] of the same compound?
Answer: The IC50 was 198 nM.

Question: Which results are given for `Fc1cccc2c1C(C1CCN(c3ccccc3)CC1)n1cncc1-2` (centres unmarked) [Example 1, 6-fluoro-5-(1-phenylpiperidin-4-yl)-5H-imidazo[5,1-a]isoindole trifluoroacetate]?
Answer: IC50 [2]: 87.4 nM; IC50 [1]: 338 nM

Question: What does the source list for `Fc1cccc2c1C(C1CCN(c3ncc(-c4ccccc4)s3)CC1)n1cncc1-2` (centres unmarked) [Example 23, 2-(4-(6-fluoro-5H-imidazo[5,1-a]isoindol-5-yl)piperidin-1-yl)-5-phenylthiazole trifluoroacetate]?
Answer: IC50 [2, 4]: 48.2 nM; IC50 [1, 5]: 399 nM; IC50 [3, 6]: 439 nM

Question: For `Fc1ccc2c(c1)C(C1CCN(c3ccccc3)CC1)n1cncc1-2` (centres unmarked) [Example 2, 7-fluoro-5-(1-phenylpiperidin-4-yl)-5H-imidazo[5,1-a]isoindole trifluoroacetate], which IC50 [1] is on record?
Answer: The IC50 was 215 nM.

Question: `OC[C@H](O)Cn1cc(-c2ccc(N3CCC(C4c5c(F)cccc5-c5cncn54)CC3)cc2)cn1` (stereo partly drawn) [Example 30, (2R)-3-(4-(4-(4-(6-fluoro-5H-imidazo[5,1-a]isoindol-5-yl)piperidin-1-yl)phenyl)-1H-pyrazol-1-yl)propane-1,2-diol trifluoroacetate] was tested. Which IC50 [2, 4] did it give?
Answer: The IC50 was 58.7 nM.

Question: What about the IC50 [1, 5] of the same compound?
Answer: Its IC50 is 319 nM.

Question: And the IC50 [3, 6]?
Answer: Its IC50 is 334 nM.

Question: How did the IC50 [2, 4] turn out when `OC[C@@H](O)Cn1cc(-c2ccc(N3CCC(C4c5c(F)cccc5-c5cncn54)CC3)cc2)cn1` (stereo partly drawn) [Example 29, (2S)-3-(4-(4-(4-(6-fluoro-5H-imidazo[5,1-a]isoindol-5-yl)piperidin-1-yl)phenyl)-1H-pyrazol-1-yl)propane-1,2-diol] was run?
Answer: The IC50 was 35.9 nM.

Question: What about the IC50 [1, 5] of the same compound?
Answer: Its IC50 is 220 nM.

Question: What about the IC50 [3, 6] of the same compound?
Answer: The IC50 was 292 nM.

Question: Which IC50 [2] does the source give for `Fc1ccc(N2CCC(C3c4c(F)cccc4-c4cncn43)CC2)cc1F` (centres unmarked) [Example 46, 5-(1-(3,4-difluorophenyl)piperidin-4-yl)-6-fluoro-5H-imidazo[5,1-a]isoindole] here?
Answer: The IC50 was 6.68 nM.

Question: And the IC50 [1]?
Answer: The IC50 was 68.9 nM.

Question: And the IC50 [3, 6]?
Answer: Its IC50 is 69.1 nM.

Question: `Fc1cccc2c1C(C1CCN(c3ccccc3)C1)n1cncc1-2` (centres unmarked) [Example 25, 6-fluoro-5-(1-phenylpyrrolidin-3-yl)-5H-imidazo[5,1-a]isoindole trifluoroacetate] was tested. Which IC50 [1] did it give?
Answer: The IC50 was 257 nM.

Question: What does the source list for `N#Cc1ccc(N2CCC(C3c4c(F)cccc4-c4cncn43)CC2)cc1F` (centres unmarked) [Example 45, 2-fluoro-4-(4-(6-fluoro-5H-imidazo[5,1-a]isoindol-5-yl)piperidin-1-yl)benzonitrile]?
Answer: IC50 [2, 4]: 8.84 nM; IC50 [1, 5]: 234 nM; IC50 [3, 6]: 231 nM

Question: For `N#Cc1ccc(N2CCC(C3c4c(F)cccc4-c4cncn43)CC2)cc1` (centres unmarked) [Example 5, 4-(4-(6-fluoro-5H-imidazo[5,1-a]isoindol-5-yl)piperidin-1-yl)benzonitrile trifluoroacetate], which IC50 [2] is on record?
Answer: The IC50 was 81.2 nM.

Question: What about the IC50 [1] of the same compound?
Answer: The IC50 was 394 nM.

Question: What about the IC50 [3] of the same compound?
Answer: Its IC50 is 353 nM.

Question: What does the source list for `Fc1cccc2c1C(C1CCN(c3ncc(-c4cnn(C5CCOCC5)c4)cn3)CC1)n1cncc1-2` (centres unmarked) [Example 18, 6-fluoro-5-(1-(5-(1-(tetrahydro-2H-pyran-4-yl)-1H-pyrazol-4-yl)pyrimidin-2-yl)piperidin-4-yl)-5H-imidazo[5,1-a]isoindole]?
Answer: IC50 [2, 4]: 34 nM; IC50 [1, 5]: 361 nM; IC50 [3, 6]: 198 nM
